The term GI50 denotes the concentration at which growth is held to half of that of the control.

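Cultured in 96-well plates, cells were exposed to test compound for 48 hours across five concentrations. At the GI50, growth is halved.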 Activity calls are given as the source filed them. No stated cut-off is given here; in the data, active = GI50 up to about 1.1 µM and inactive = higher.

Data on eleven compounds can be found in ChEMBL document CHEMBL1201862, “PubChem BioAssay data set” (2004).

Test systems include UACC-257; NCI-H226; Malme-3M; HOP-92; SF-295; OVCAR-8; T47D; ACHN; U-251; SNB-75; RXF 393; TK-10; HL-60; SK-MEL-2; HOP-62; SF-539; M14; OVCAR-4; OVCAR-5; NCI-H460.
Assay in all cases: DTP human tumour cell line panel, 48 h

`N#CC1(C#N)N[C@@H](c2ccsc2)[C@H]2C(=O)N(c3ccccc3)C(=O)[C@H]21`: the GI50 in the assay on UACC-257 was 29.6 µM (inactive); in the assay with NCI-H226, > 100 µM (inactive); in the assay on Malme-3M, > 100 µM (inactive); in the assay on HOP-92, 65.2 µM (inactive); in the assay with SF-295 it was > 100 µM (inactive); in the assay with OVCAR-8, > 100 µM (inactive). The GI50 is 63.2 µM (inactive) with T47D; > 100 µM (inactive) in the assay on ACHN; 77.6 µM (inactive) in the assay with U-251; > 100 µM (inactive) in the assay with SNB-75; 70.3 µM (inactive) with RXF 393; > 100 µM (inactive) in the assay on TK-10. Also, the GI50 in the assay on HL-60 was 21.4 µM (inactive); with SK-MEL-2 it was > 100 µM (inactive); in the assay on HOP-62, > 100 µM (inactive).

Turning to `CCCc1[nH]nc(C(N)=O)c1/N=N/N(C)C`, the GI50 in the assay on UACC-257 was > 100 µM (inactive); in the assay with SF-539, 48.4 µM (inactive); in the assay with NCI-H226, 38.9 µM (inactive); in the assay on Malme-3M, 98.2 µM (inactive); with HOP-92, 33.3 µM (inactive); in the assay with SF-295, 57.9 µM (inactive). The GI50 in the assay on M14 was > 100 µM (inactive); in the assay with OVCAR-8 it was 76.2 µM (inactive); with T47D it was 54 µM (inactive); in the assay with ACHN it was 44.2 µM (inactive); with U-251, 55.8 µM (inactive); with OVCAR-4, 54.1 µM (inactive). Further, the GI50 was 16.1 µM (inactive) in the assay on SNB-75; 41.5 µM (inactive) in the assay with RXF 393; 67.5 µM (inactive) with TK-10; 8.34 µM (inactive) with HL-60; > 100 µM (inactive) with SK-MEL-2; 58.7 µM (inactive) with HOP-62.

For `OCC1OC(n2cnc3cccnc32)CC1O` (stereo unspecified), the GI50 in the assay with UACC-257, with SF-539, with OVCAR-5, with NCI-H226, in the assay on NCI-H460 and in the assay with HOP-92 was > 100 µM (inactive) each time. The GI50 in the assay with SF-295, with M14, in the assay on OVCAR-8, with T47D, in the assay on ACHN and with U-251 was > 100 µM (inactive) in each case. Besides, the GI50 is > 100 µM (inactive) in the assay on OVCAR-4; 7.76 µM (inactive) with SNB-75; > 100 µM (inactive) in the assay with RXF 393; > 100 µM (inactive) in the assay on TK-10; > 100 µM (inactive) with HL-60; > 100 µM (inactive) with SK-MEL-2. Besides, the GI50 in the assay on HOP-62 was > 100 µM (inactive).

As for `CCOC(=O)[C@@H]1ON2OC(OC3CCCC3(c3ccccc3)c3ccccc3)C(OC(C)=O)[C@H]3OC(=O)[C@@H]1C32` (stereo partly specified), the GI50 is 52.5 µM (inactive) in the assay on UACC-257; 56.6 µM (inactive) in the assay on SF-539; > 100 µM (inactive) with NCI-H226; > 100 µM (inactive) in the assay with NCI-H460; > 100 µM (inactive) with HOP-92; 31.6 µM (inactive) in the assay on SF-295. Besides, the GI50 with M14 is 95.7 µM (inactive); in the assay on OVCAR-8, > 100 µM (inactive); in the assay on T47D, 46.6 µM (inactive); in the assay with ACHN, 29.9 µM (inactive); in the assay on U-251 it was 42.8 µM (inactive); in the assay on SNB-75, > 100 µM (inactive). Also, the GI50 in the assay with RXF 393 is 27.4 µM (inactive); in the assay with TK-10 it was > 100 µM (inactive); with HL-60 it was 31.3 µM (inactive); in the assay on SK-MEL-2, 68.7 µM (inactive); in the assay with HOP-62, > 100 µM (inactive).

On to `c1ccc(C(Oc2noc3ccccc23)c2ccccc2)cc1`, for which the GI50 in the assay with UACC-257 was 29.5 µM (inactive); in the assay with OVCAR-5, 51.4 µM (inactive); with NCI-H226, 50.2 µM (inactive); in the assay with Malme-3M it was 67.5 µM (inactive); in the assay on NCI-H460, 29.2 µM (inactive); in the assay on HOP-92, 35.6 µM (inactive). In addition, the GI50 was 33 µM (inactive) in the assay with SF-295; 25.2 µM (inactive) with M14; 45.3 µM (inactive) in the assay on OVCAR-8; 3.64 µM (inactive) in the assay on T47D; 51.3 µM (inactive) in the assay with ACHN; 31.7 µM (inactive) with U-251. Besides, the GI50 in the assay with OVCAR-4 is 22.2 µM (inactive); with SNB-75 it was 12.6 µM (inactive); in the assay on RXF 393 it was 14.9 µM (inactive); with TK-10, 47.6 µM (inactive); in the assay with HL-60, 23.4 µM (inactive); in the assay with HOP-62, 88.5 µM (inactive).

For the compound `CC(=O)CCCCC(=O)Nc1ccc(CC(NC(=O)OC(C)(C)C)C(=O)NCC(=O)OCc2ccccc2)cc1` (stereo unspecified), the GI50 with SF-539 was 18.8 µM (inactive); in the assay on OVCAR-5, 63.4 µM (inactive); in the assay with NCI-H226, 34.8 µM (inactive); in the assay on Malme-3M it was 19.3 µM (inactive); in the assay on NCI-H460, 20.7 µM (inactive); in the assay on HOP-92 it was 29.1 µM (inactive). Further, the GI50 is 18.8 µM (inactive) in the assay with SF-295; 17.5 µM (inactive) with M14; 20 µM (inactive) in the assay with OVCAR-8; 19.9 µM (inactive) in the assay on T47D; 30.5 µM (inactive) in the assay with ACHN; 18.7 µM (inactive) in the assay with U-251. The GI50 with OVCAR-4 is 13.7 µM (inactive); with SNB-75 it was 4.44 µM (inactive); with RXF 393 it was 25.2 µM (inactive); with TK-10, 63.1 µM (inactive); in the assay with HL-60, 19.5 µM (inactive); with HOP-62, 13.8 µM (inactive).

As for `C[C@H](C1CC(C)(O)C(C)(O)C(O)O1)[C@H]1CC[C@H]2[C@@H]3[C@@H]4O[C@@H]4[C@@]4(O)CC=CC(=O)[C@]4(C)[C@H]3CC[C@]12C` (stereo partly specified), the GI50 in the assay with UACC-257 was > 50 µM (inactive); in the assay with OVCAR-5, > 50 µM (inactive); in the assay on NCI-H226 it was 22.9 µM (inactive); in the assay with Malme-3M, 2.67 µM (inactive); with NCI-H460, > 50 µM (inactive); with HOP-92 it was 33.6 µM (inactive). Further, the GI50 was > 50 µM (inactive) in the assay with SF-295; > 50 µM (inactive) with M14; 30.4 µM (inactive) with OVCAR-8; > 50 µM (inactive) with T47D; 45.4 µM (inactive) in the assay on ACHN; > 50 µM (inactive) in the assay with U-251. Further, the GI50 with OVCAR-4 was > 50 µM (inactive); in the assay with SNB-75, 20.9 µM (inactive); in the assay with RXF 393, 22.1 µM (inactive); in the assay with TK-10, > 50 µM (inactive); in the assay on HL-60 it was > 50 µM (inactive); in the assay on SK-MEL-2, > 50 µM (inactive). Moreover, in the assay with HOP-62, the GI50 was 27.8 µM (inactive).

For `Cc1ccc2c(/C=C/c3ccc(N(C)C)cc3)ccc(C(C)C)cc1-2`, the GI50 is 48.9 µM (inactive) in the assay on UACC-257; > 100 µM (inactive) in the assay on OVCAR-5; > 100 µM (inactive) with NCI-H226; > 100 µM (inactive) in the assay on Malme-3M; 76.4 µM (inactive) in the assay on HOP-92; > 100 µM (inactive) in the assay on SF-295. Further, the GI50 in the assay with M14 was > 100 µM (inactive); in the assay on OVCAR-8, > 100 µM (inactive); in the assay with T47D, 36.9 µM (inactive); in the assay on ACHN, > 100 µM (inactive); in the assay with U-251, > 100 µM (inactive); in the assay on SNB-75, > 100 µM (inactive). The GI50 in the assay with RXF 393 is > 100 µM (inactive); in the assay on TK-10, > 100 µM (inactive); with HL-60, 12.9 µM (inactive); with SK-MEL-2 it was > 100 µM (inactive); in the assay with HOP-62, > 100 µM (inactive).

Regarding `Nc1cccc2nnccc12`, the GI50 in the assay with UACC-257, with SF-539, in the assay with OVCAR-5, in the assay with NCI-H226, in the assay on Malme-3M and with NCI-H460 was > 100 µM (inactive) in each case. In addition, the GI50 in the assay with HOP-92, in the assay on SF-295, in the assay on M14, with OVCAR-8, in the assay with T47D and in the assay with ACHN was > 100 µM (inactive) throughout. Besides, the GI50 in the assay with U-251, in the assay with SNB-75, in the assay on RXF 393, in the assay on TK-10, in the assay on HL-60 and with SK-MEL-2 was > 100 µM (inactive) in each case.

Consider `O=C1N(c2ccccc2)N=C2c3ccncc3C3=NN(c4ccccc4)C(=O)C123` (stereo unspecified), for which the GI50 in the assay with UACC-257 was 27.1 µM (inactive); with SF-539 it was 14.5 µM (inactive); in the assay on OVCAR-5, > 65.2 µM (inactive); in the assay on NCI-H226, > 100 µM (inactive); in the assay on Malme-3M it was > 100 µM (inactive); with NCI-H460, 5.32 µM (inactive). Further, the GI50 in the assay on HOP-92 was > 100 µM (inactive); in the assay on SF-295 it was 4.37 µM (inactive); with OVCAR-8, > 100 µM (inactive); with T47D, 2.26 µM (inactive); in the assay on ACHN, > 43.6 µM (inactive); in the assay on U-251, > 100 µM (inactive). The GI50 is > 63 µM (inactive) in the assay with OVCAR-4; > 100 µM (inactive) in the assay on SNB-75; > 100 µM (inactive) in the assay on RXF 393; > 100 µM (inactive) in the assay with TK-10; 0.619 µM (active) in the assay on HL-60; > 100 µM (inactive) in the assay with SK-MEL-2. Further, the GI50 with HOP-62 is > 100 µM (inactive).

As for `CC(=O)O[C@H]1C[C@]2(C)C(CCC3O[C@@]32C)[C@@]2(CC(c3ccoc3)OC2O)[C@@H]1C` (stereo partly specified), the GI50 was 63.4 µM (inactive) in the assay with UACC-257; > 100 µM (inactive) in the assay with SF-539; > 100 µM (inactive) in the assay with OVCAR-5; > 100 µM (inactive) in the assay on NCI-H226; 60.8 µM (inactive) in the assay on NCI-H460; > 100 µM (inactive) in the assay with HOP-92. Also, the GI50 in the assay with SF-295 was > 100 µM (inactive); with M14, > 100 µM (inactive); with OVCAR-8, > 100 µM (inactive); in the assay on T47D it was 39.3 µM (inactive); in the assay with ACHN, > 100 µM (inactive); with U-251 it was > 100 µM (inactive). Moreover, the GI50 in the assay on OVCAR-4 was 41 µM (inactive); in the assay with SNB-75, > 100 µM (inactive); in the assay on RXF 393, > 100 µM (inactive); in the assay with TK-10, > 100 µM (inactive); with HL-60 it was 21.6 µM (inactive); with SK-MEL-2, > 100 µM (inactive).
